Assay results as given in patent US4340595A, “Aminopropanol derivatives of 6-hydroxy-2,3,4,5-tetrahydro-1H-1-benzazepin-2-one and pharmaceutical formulations containing the said compounds” (BASF Aktiengesellschaft, priority 1978, dated 1982).
Counter-ions that a name gives are not always drawn. Like-named read-outs stand apart in the source and are kept apart here.

Key:
[1] = test system: isoproterenol-induced tachycardia; experiment: β-sympatholytic action in cats: inhibition of isoproterenol-induced tachycardia; assay type: in vivo, cat (male and female, mongrels); settings: for ED (50-60%): Felis catus, hexobarbital narcosis; for ED (50-60%) / factor by which the dose required for 50-60% inhibition is lower than the corresponding dose of propranolol, intraduodenal / % inhibition of isoproterenol-induced tachycardia, intraduodenal administration / factor by which the dose required is lowered compared with propranolol, intravenous / % inhibition of isoproterenol-induced tachycardia, intravenous administration: cats; for factor by which the dose required for 50-60% inhibition is lower than the corresponding dose of propranolol, intraduodenal: enteral (intraduodenal) administration; for factor by which the dose required for 50-60% inhibition is lower than the corresponding dose of propranolol, intraduodenal / factor by which the dose required is lowered compared with propranolol, intravenous: vs propranolol; for % inhibition of isoproterenol-induced tachycardia, intraduodenal administration: at the mg/kg dose of the same line (E3); for factor by which the dose required is lowered compared with propranolol, intravenous: intravenous administration; for % inhibition of isoproterenol-induced tachycardia, intravenous administration: at the mg/kg dose of the same line (E1)
Experimental: (§1) The β-sympatholytic action was tested on cats and dogs. The comparative compound used was the conventional β-sympatholytic agent propranolol. The isoproterenol-induced tachycardia model was used for the test.
Isoproterenol (1 μg/kg, administered intravenously) produces increases in heart rate averaging 61±2.4 beats/min. in cats (male and female, mongrels, weighing 1.7 to 4.0 kg) narcotized with hexobarbital (200 mg/kg administered intramuscularly). β-Sympatholytic agents inhibit this tachycardia. Isoproterenol was injected before, and 10 minutes after, the intravenous administration, or 30 minutes after the intraduodenal administration, of the test substances. The doses which inhibit the isoproterenol-induced tachycardia by 50-60% were determined.

[2] = test system: isoproterenol-induced tachycardia; experiment: β-sympatholytic action in conscious dogs: inhibition of isoproterenol-induced tachycardia; assay type: in vivo, dog; settings: for ED50: Canis lupus familiaris, 10 min, read-out: ED 50% (dose which inhibits the isoproterenol-induced tachycardia by 50%)
Experimental: as §1
Isoproterenol was administered before and 10 minutes after the intravenous administration of the test substances.

[3] = acute toxicity, intraperitoneal administration to mice; parameters: species or system mouse (NMRI, female); settings: mouse, in vivo, ip, Probit analysis
[4] = 10 min, intravenous, isoproterenol 1 μg/kg i.v. 10 minutes after test substance, read-out: dose inhibiting isoproterenol-induced tachycardia by 50-60%, intravenous administration
[5] = 0.5 h, intraduodenal, isoproterenol 1 μg/kg i.v. 30 minutes after test substance, read-out: dose inhibiting isoproterenol-induced tachycardia by 50-60%, intraduodenal administration

Row | SMILES | ED (50-60%) [1, 4] | ED (50-60%) [1, 5] | factor by which the dose required for 50-60% inhibition is lower than the corresponding dose of propranolol, intraduodenal [1] | % inhibition of isoproterenol-induced tachycardia, intraduodenal administration ([1]; intraduodenal) | factor by which the dose required is lowered compared with propranolol, intravenous [1] | % inhibition of isoproterenol-induced tachycardia, intravenous administration ([1]; intravenous) | ED50 ([2]; conscious dogs, intravenous, isoproterenol 1 μg/kg i.v.) | times as active as propranolol (ED 50%) ([2]; conscious dogs, intravenous, vs propranolol) | LD50 at 24 h [3] | ED50 ([2]; iv) | increase in heart rate produced by isoproterenol ([1]; cats narcotized with hexobarbital, 1 μg/kg intravenously) | increase in heart rate caused by isoproterenol ([2]; conscious dogs, 1 μg/kg intravenously)
1 | CC(C)(C)NCC(O)COc1cccc2c1CCCC(=O)N2 (centres unmarked) [Example 2, 6-(2-hydroxy-3-tert.-butylaminopropoxy)-2,3,4,5-tetrahydro-1H-1-benzazepin-2-one hydrochloride] | 0.0215 mg/kg | 0.215 mg/kg | 4.7 | 52% | 4.7 | 57% | 0.0043 mg/kg | 24 times | 237 mg/kg | – | – | –
2 | CC(C)NCC(O)COc1cccc2ccccc12 (centres unmarked) [Propranolol, reference compound] | – | – | – | 57% | – | 52% | – | – | – | 0.1 mg/kg | – | –
3 | CC(C)NCC(O)c1ccc(O)c(O)c1 (centres unmarked) [Isoproterenol, reference compound] | – | – | – | – | – | – | – | – | – | – | 61±2.4 beats/min. | about 100 beats/min.
4 | CC(C)NCC(O)COc1cccc2c1CCCC(=O)N2 (centres unmarked) [Example 1, 6-(2-hydroxy-3-isopropylaminopropoxy)-2,3,4,5-tetrahydro-1H-1-benzazepin-2-one] | 0.215 mg/kg | 0.464 mg/kg | 2 | 56% | 2 | 59% | – | – | – | – | – | –
